From PubChem BioAssay (NCI)
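In this assay, cells in 96-well plates receive the compound at five concentrations for 48 hours. Endpoints are linearly interpolated between the surrounding concentrations. TGI is the concentration that stops growth completely.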

Key:
Assay in all cases: NCI anticancer screen, dose series, 48 h
SK-MEL-28 melanoma = test system: SK-MEL-28 melanoma
PC-3 prostate = test system: PC-3 prostate
IGROV1 ovarian = test system: IGROV1 ovarian
MALME-3M melanoma = test system: MALME-3M melanoma
HS 578T breast = test system: HS 578T breast
MDA-N = test system: MDA-N
MDA-MB-435 = test system: MDA-MB-435
786-0 renal = test system: 786-0 renal
OVCAR-5 ovarian = test system: OVCAR-5 ovarian
A549 NSCLC = test system: A549 NSCLC
SK-MEL-2 melanoma = test system: SK-MEL-2 melanoma
CCRF-CEM leukemia = test system: CCRF-CEM leukemia
A498 renal = test system: A498 renal
NCI-H460 lung = test system: NCI-H460 lung
OVCAR-4 ovarian = test system: OVCAR-4 ovarian
SNB-19 CNS = test system: SNB-19 CNS
LOX IMVI melanoma = test system: LOX IMVI melanoma
SW-620 colon = test system: SW-620 colon
MCF7 breast = test system: MCF7 breast
HL-60(TB) leukemia = test system: HL-60(TB) leukemia
CAKI-1 renal = test system: CAKI-1 renal
UACC-257 melanoma = test system: UACC-257 melanoma
SNB-75 CNS = test system: SNB-75 CNS
NCI-H522 lung = test system: NCI-H522 lung
HCT-116 colon = test system: HCT-116 colon
RXF 393 renal = test system: RXF 393 renal
T-47D breast = test system: T-47D breast
HCC-2998 colon = test system: HCC-2998 colon
HCT-15 colon = test system: HCT-15 colon
NCI-H226 lung = test system: NCI-H226 lung
TK-10 renal = test system: TK-10 renal
OVCAR-3 ovarian = test system: OVCAR-3 ovarian
EKVX NSCLC = test system: EKVX NSCLC
NCI-H23 lung = test system: NCI-H23 lung
ACHN renal = test system: ACHN renal
K-562 leukemia = test system: K-562 leukemia
SF-268 CNS = test system: SF-268 CNS
BT-549 breast = test system: BT-549 breast
SF-295 CNS = test system: SF-295 CNS
HT29 colon = test system: HT29 colon
HOP-62 NSCLC = test system: HOP-62 NSCLC
SK-MEL-5 melanoma = test system: SK-MEL-5 melanoma
SK-OV-3 ovarian = test system: SK-OV-3 ovarian
SF-539 CNS = test system: SF-539 CNS
KM12 colon = test system: KM12 colon
COLO 205 colon = test system: COLO 205 colon
UO-31 renal = test system: UO-31 renal
MDA-MB-231 breast = test system: MDA-MB-231 breast
HOP-92 NSCLC = test system: HOP-92 NSCLC
M14 melanoma = test system: M14 melanoma
SN12C renal = test system: SN12C renal
U251 CNS = test system: U251 CNS
NCI/ADR-RES ovarian = test system: NCI/ADR-RES ovarian
DU-145 prostate = test system: DU-145 prostate
UACC-62 melanoma = test system: UACC-62 melanoma
RPMI-8226 leukemia = test system: RPMI-8226 leukemia
OVCAR-8 ovarian = test system: OVCAR-8 ovarian
MOLT-4 leukemia = test system: MOLT-4 leukemia

Measured: TGI

COc1cc(C(=O)N(C)N(C)C)cc(OC)c1OC
> 10 µM: SK-MEL-28 melanoma | PC-3 prostate | IGROV1 ovarian | MALME-3M melanoma | HS 578T breast | MDA-N | MDA-MB-435 | 786-0 renal | OVCAR-5 ovarian | A549 NSCLC | SK-MEL-2 melanoma | CCRF-CEM leukemia | A498 renal | NCI-H460 lung | OVCAR-4 ovarian | SNB-19 CNS | LOX IMVI melanoma | SW-620 colon | MCF7 breast | HL-60(TB) leukemia | CAKI-1 renal | UACC-257 melanoma | SNB-75 CNS | NCI-H522 lung | HCT-116 colon | RXF 393 renal | T-47D breast | HCC-2998 colon | HCT-15 colon | NCI-H226 lung | TK-10 renal | OVCAR-3 ovarian | EKVX NSCLC | NCI-H23 lung | ACHN renal | K-562 leukemia | SF-268 CNS | BT-549 breast | SF-295 CNS | HT29 colon | HOP-62 NSCLC | SK-MEL-5 melanoma | SK-OV-3 ovarian | SF-539 CNS | KM12 colon | COLO 205 colon | UO-31 renal | MDA-MB-231 breast | HOP-92 NSCLC | M14 melanoma | SN12C renal | U251 CNS | NCI/ADR-RES ovarian | DU-145 prostate | UACC-62 melanoma | RPMI-8226 leukemia | OVCAR-8 ovarian | MOLT-4 leukemia
